The target of test [1] is Nicotinic acetylcholine receptor (Rattus leucopus, UniProt Q62594).
Test [2] concerns the target Neuronal acetylcholine receptor subunit alpha-4 (Rattus norvegicus, UniProt P09483).
Test [3] deals with Neuronal acetylcholine receptor subunit alpha-7 (Rattus norvegicus, UniProt Q05941).
Test [4] addresses Neuronal acetylcholine receptor subunit alpha-9 (Rattus norvegicus, UniProt P43144).
Test [5] concerns the target Neuronal acetylcholine receptor subunit alpha-3 (Rattus norvegicus, UniProt P04757).

Molecules are shown by their SMILES. Where a name gives a salt, the structure may show the parent alone.

Data on ten compounds can be found in BindingDB's records for doi:10.1124/mol.57.3.642 (National Institute On Drug Abuse, 2000).

Nicotinic acetylcholine receptor, sequence (Q62594 whole entry): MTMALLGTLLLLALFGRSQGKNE
Neuronal acetylcholine receptor subunit alpha-9, sequence (P43144 whole entry): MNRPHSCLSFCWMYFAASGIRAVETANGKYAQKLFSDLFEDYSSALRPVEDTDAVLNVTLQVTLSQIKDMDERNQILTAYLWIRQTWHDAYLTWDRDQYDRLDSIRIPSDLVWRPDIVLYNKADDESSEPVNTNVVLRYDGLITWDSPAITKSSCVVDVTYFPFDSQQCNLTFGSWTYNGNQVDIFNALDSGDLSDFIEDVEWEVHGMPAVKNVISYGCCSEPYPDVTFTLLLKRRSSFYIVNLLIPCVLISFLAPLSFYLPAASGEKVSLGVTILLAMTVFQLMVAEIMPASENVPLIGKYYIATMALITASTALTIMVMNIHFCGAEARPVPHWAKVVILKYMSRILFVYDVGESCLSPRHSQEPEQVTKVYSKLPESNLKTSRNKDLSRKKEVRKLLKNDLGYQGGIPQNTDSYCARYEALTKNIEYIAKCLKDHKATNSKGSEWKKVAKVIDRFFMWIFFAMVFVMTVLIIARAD
Neuronal acetylcholine receptor subunit alpha-4, sequence (P09483 whole entry): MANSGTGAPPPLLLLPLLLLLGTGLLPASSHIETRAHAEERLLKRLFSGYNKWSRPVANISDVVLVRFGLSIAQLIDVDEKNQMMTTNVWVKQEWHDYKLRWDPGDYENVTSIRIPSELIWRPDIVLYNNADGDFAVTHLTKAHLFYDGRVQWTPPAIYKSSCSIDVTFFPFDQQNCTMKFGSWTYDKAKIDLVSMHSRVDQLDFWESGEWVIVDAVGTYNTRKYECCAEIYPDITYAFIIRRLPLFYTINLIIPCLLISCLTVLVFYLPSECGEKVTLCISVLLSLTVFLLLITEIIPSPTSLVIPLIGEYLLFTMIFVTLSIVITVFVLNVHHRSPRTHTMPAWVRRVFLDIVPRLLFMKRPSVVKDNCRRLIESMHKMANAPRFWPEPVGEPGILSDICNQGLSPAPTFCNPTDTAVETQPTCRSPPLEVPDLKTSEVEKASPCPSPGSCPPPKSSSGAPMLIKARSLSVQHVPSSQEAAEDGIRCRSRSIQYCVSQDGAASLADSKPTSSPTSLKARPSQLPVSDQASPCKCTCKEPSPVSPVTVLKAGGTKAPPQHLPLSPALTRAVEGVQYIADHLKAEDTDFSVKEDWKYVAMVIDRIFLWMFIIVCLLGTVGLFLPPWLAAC
Neuronal acetylcholine receptor subunit alpha-7, sequence (Q05941 whole entry): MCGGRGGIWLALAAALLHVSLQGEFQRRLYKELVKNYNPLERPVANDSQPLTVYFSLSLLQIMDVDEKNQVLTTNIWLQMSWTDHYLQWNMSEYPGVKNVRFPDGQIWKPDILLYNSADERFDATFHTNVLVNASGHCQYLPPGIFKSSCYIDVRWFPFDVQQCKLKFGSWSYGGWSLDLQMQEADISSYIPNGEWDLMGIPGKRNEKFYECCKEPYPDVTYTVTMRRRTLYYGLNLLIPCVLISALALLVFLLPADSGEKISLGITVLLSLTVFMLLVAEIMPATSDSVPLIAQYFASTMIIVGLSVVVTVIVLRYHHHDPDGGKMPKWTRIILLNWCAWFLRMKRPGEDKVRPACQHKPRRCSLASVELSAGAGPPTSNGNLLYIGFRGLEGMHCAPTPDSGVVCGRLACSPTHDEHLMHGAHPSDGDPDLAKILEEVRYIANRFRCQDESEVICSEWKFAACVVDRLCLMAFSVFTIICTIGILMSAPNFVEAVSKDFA
Neuronal acetylcholine receptor subunit alpha-3, sequence (P04757 whole entry): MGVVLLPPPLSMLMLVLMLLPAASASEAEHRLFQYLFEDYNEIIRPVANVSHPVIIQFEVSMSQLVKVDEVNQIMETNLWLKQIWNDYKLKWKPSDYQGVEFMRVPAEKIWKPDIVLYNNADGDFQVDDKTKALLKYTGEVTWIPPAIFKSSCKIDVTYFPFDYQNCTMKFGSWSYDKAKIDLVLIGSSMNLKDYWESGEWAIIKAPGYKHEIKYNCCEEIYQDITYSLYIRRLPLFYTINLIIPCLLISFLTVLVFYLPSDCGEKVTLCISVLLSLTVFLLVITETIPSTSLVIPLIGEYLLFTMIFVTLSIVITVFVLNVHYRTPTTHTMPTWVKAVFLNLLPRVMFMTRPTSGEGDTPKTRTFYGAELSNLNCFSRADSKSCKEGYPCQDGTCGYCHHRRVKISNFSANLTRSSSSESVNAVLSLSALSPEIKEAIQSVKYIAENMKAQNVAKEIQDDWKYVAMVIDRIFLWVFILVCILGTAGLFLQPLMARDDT

As for `CNC(=O)Oc1ccc2c(c1)[C@]1(C)CCN(C)C1N2C` (stereo partly drawn), in test [1], the Ki (commonly the equilibrium dissociation constant of an inhibitor or competing ligand from its target) is greater than 10000 nM.

With `c1cncc(OC[C@@H]2CCN2)c1`, the Ki in test [2] came out at 0.01 nM; in test [3], 17 nM; in test [4], 320 nM.

In the case of `C=C(C=O)C[C@H]1C[C@H](O)[C@]2(C)O[C@@H]3C[C@@H]4O[C@@H]5C[C@]6(C)O[C@]7(C)CC[C@@H]8O[C@@H]9C[C@]%10(C)O[C@@H]%11C(C)=CC(=O)O[C@H]%11C[C@H]%10O[C@H]9C[C@@H](C)[C@H]8O[C@H]7C[C@H]6O[C@@]5(C)C/C=C\[C@H]4O[C@H]3C[C@H]2O1`, in test [1], the Ki was 2500 nM.

`O=C(CCCN1CCC(O)(c2ccc(Cl)cc2)CC1)c1ccc(F)cc1` [4-[4-(4-Chloro-phenyl)-4-hydroxy-piperidin-1-yl]-1-(4-fluoro-phenyl)-butan-1-one;propionate(HCl)] displayed an inhibition constant Ki in test [1] greater than 10000 nM.

Consider `O=c1cccc2n1C[C@H]1CNC[C@H]2C1` [(1S,9R)-7,11-diazatricyclo[7.3.1.0~2,7~]trideca-2,4-dien-6-one], for which the Ki in test [2] was 0.18 nM; in test [3], 260 nM; in test [5] it was 54 nM; in test [4] it was 190 nM.

`CN1CCc2cccc3c2[C@H]1Cc1ccc(O)c(O)c1-3` [APOKYN] registered a Ki in test [1] greater than 10000 nM.

Turning to `CN1[C@@H]2CC[C@H]1CC(OC(=O)[C@H](CO)c1ccccc1)C2` (stereo partly drawn) [CAS_51-55-8], the Ki in test [1] is greater than 10000 nM.

For the compound `COc1cc2c3cc1Oc1cc(ccc1O)CC1c4c(cc(OC)c(O)c4Oc4ccc(cc4)CC3[N+](C)(C)CC2)CC[N+]1(C)C` (stereo not drawn) [CAS_8063-06-7], the Ki in test [1] came to 730 nM. That is a sub-micromolar value.

Turning to `Ic1ccc(C2CC3CCC2N3)cn1` (stereo not drawn) [IPH], the inhibitory constant (Ki) in test [2] stood at 0.02 nM; in test [3], 30 nM; in test [5] it was 0.11 nM; in test [4], 6.5 nM.

In test [1], `C=CCN1CC[C@]23c4c5ccc(O)c4O[C@H]2C(=O)CC[C@@]3(O)[C@H]1C5` [[17-(2,3-3H-2-propenyl)]-4,5a-epoxy-3,14-dihydroxymorphinan-6-one] returned a Ki greater than 10000 nM.
